Measured values as given in patent US20200276164A1, “PHARMACEUTICAL COMBINATIONS FOR THE TREATMENT OF CANCER” (The Queen's University of Belfast, priority 2017, published 2020).

What was measured:
[1] = test system: LNCaP xenograft; test: LNCaP xenograft study, tumour growth
Description: MDV3100 (in 0.1% DMSO in corn oil) was administered orally (p.o). Vehicle control (VC) or MDV3100 (4 mg/kg, equivalent to 100 mg/day in men) was administered daily. Human IL-8 and VEGF nAbs were administered 3×/week via intraperitoneal (i.p.) injection, at a final concentration of 50 μg/ml and 100 μg/ml, respectively. IgG control was at a final concentration of 150 μg/ml.
LNCaP cells (1×10^7 in Matrigel) were implanted on the rear dorsum of 8-10-week-old male Balb/c SCID mice. When tumour volume was 150-200 mm^3, mice were randomly assigned to treatment groups (3-5 per group). […] Mice were sacrificed at day 28 or day 35. Tumour growth over 28 days (% T/C) was calculated using the equation: % T/C=(mean tumour volume on day 28−mean starting volume)/(mean control tumour volume on day 28−mean control starting volume)×100.
Tumours were measured 3×/week using digital calipers. The length and width of the tumour was measured and the volume calculated using the formula volume=(length×width 2)/2. *, numbers in brackets show % T/C compared to enzalutamide alone at day 28; **, control is enzalutamide alone.

[2] = test system: LNCaP tumour vasculature; test: Dorsal skin flap model, tumour vessel coverage; format: in vivo, Balb/c SCID mice
Description: A viewing chamber was attached to a raised skin flap on the dorsal surface of the mouse (Balb/c SCID) and a fragment (˜0.5 mm) of LNCaP tumour was placed on the microvascular as previously described (9). Tumour vasculature was imaged weekly/4 weeks using a stereomicroscope. Image analysis was carried out using Touptek software (Touptek Photonics, China).

[3] = test system: hypoxic LNCaP cells; test: ELISA of secreted VEGF and IL-8 from hypoxic LNCaP cells; format: cell-based, human; conditions: MDV3100 10 μM, relative to DMSO
Description: (§1) Authenticated PC3 (ATCC CRL-1435), LNCaP (ATCC CRL-1740) and 22Rv1 (ATCC CRL-2505) cells were cultured as described in Seaton et al. (Carcinogenesis 2008; 29: 1148-56). C4-2B cells were maintained in RPMI 1640 supplemented with 10% fetal calf serum (FCS). MDV3100-sensitive (LNCaP-Par) and resistant (LNCaP-EnzR) cells were obtained from Prof. Vander Griend, University of Chicago, Chicago, Ill., and were cultured as described in Kregel et al. (Oncotarget 2016; 7: 26259-74). HUVEC (ATCC CRL-1730) cells were maintained in Endothelial Cell Growth Medium (#CC-3162, Lonza, UK). For experiments involving hypoxia (0.1% 02), cells were cultured as previously reported (Maxwell et al., Oncogene 2007; 26: 7333-45). Human IL-8 monoclonal antibody (#MAB208), human VEGF mAb (#AB293NA) and isotype-matched IgG (#MAB002) were obtained from R&D Systems (UK). MDV3100 (#S1250) was obtained from Selleckchem (Germany). Cells were regularly tested to ensure they were free of mycoplasma contamination.
Secreted IL-8 (#M1918, Pelikine, Mast Group, UK), and VEGF (#DY293B, R&D Systems, UK) were measured by ELISA as per manufacturer's instructions.

[4] = test system: LNCaP cells; test: LNCaP cell viability (MTT assay), normoxia or hypoxia; format: cell-based, human; conditions: 10 μM, 72 h
Description: as §1
(§2) Cell viability was assessed by 3-(4,5-dimethylthiazol-2-yl)-2,5-diphenyltetrazolium bromide (MTT) assay as previously described (Maxwell et al., Oncogene 2007; 26: 7333-45).

[5] = test system: HUVEC cells; test: HUVEC apoptosis (Annexin V/PI staining); format: cell-based, human; conditions: 10 μM, 72 h
Description: FIG. 1 illustrates that MDV3100 treatment directly affects tumour vasculature. (A) Graph illustrating measured intra-tumoural oxygenation levels in growing MDV3100-treated LNCaP tumours, in the absence and presence of anti-IL-8 nAb (50 μg/ml) and/or anti-VEGF nAb (100 μg/ml). Values shown are mean (±SD). (B) Bar graph presenting time-dependent changes in tumour vessel density over time in MDV3100-treated LNCaP tumours, in the absence or presence of anti-IL-8 nAb (50 μg/ml) and/or anti-VEGF nAb (100 μg/ml). Stereological methods were used to analyze change in vessel density over time in all treatment groups and values were used to calculate percentage area covered by vessels. […] Data shown are the mean (±SEM) of four individual experiments. […] Viability was determined by MTT assay. […] Apoptosis was assessed by Annexin V/PI staining. […] The number of junctions was measured using AngioSys 2.0 software. […] For all data, statistically significant differences were determined using a Student's two-tailed t-test or Mann-Whitney U test:* p<0.05, ** p<0.01, *** p<0.001.
To further understand the events contributing to MDV3100-promoted hypoxia, we studied the direct effect of MDV3100 administration upon vascular endothelial cells using two independent i assays. In agreement with previous studies, we detected AR mRNA in HUVEC endothelial cells by qPCR analysis (FIG. 1C, top panel). […]

[6] = test system: C4-2B cells; test: C4-2B cell viability assay; format: cell-based; conditions: 72 h
Description: as §1, §2

[7] = test system: PC3 cells; test: Chick embryo experimental metastasis model (CAM assay), PC3 colonization; format: in vivo; conditions: over five days; 0.1 mL of 20 μM solution i.v. per embryo on days 1 and 2
Description: Experimental metastasis assays were performed in chick embryos as described (Deryugina et al., Histochem Cell Biol 2008; 130: 1119-30). On day 12 of incubation, PC3 cells were injected directly into the blood circulation through an allantoic vein (1×10^5 cells in 0.1 mL serum-free medium per embryo). MDV3100 was delivered i.v. on days 1 and 2 after cell inoculations (0.1 mL of a 20 μM solution per embryo). On day 5, portions of the CAM were harvested to quantify the number of human tumour cells by human-specific Alu-qPCR as previously described (Deryugina et al., Cancer Res 2005; 65: 10959-69), using a standard curve generated by serial dilutions of human tumour cells within a constant number (1×10^6) of chick embryo fibroblasts.

[8] = test system: LNCaP-EnzR cells; test: LNCaP-EnzR (MDV3100-resistant) cell viability assay; format: cell-based, human; conditions: MDV3100 10 μM, relative to DMSO control
Description: as §1, §2

[9] = test system: LNCaP-EnzR cells; test: Immunoblot of PARP, AR, c-FLIP and Bcl-2 in LNCaP-EnzR cells; format: cell-based, human; conditions: MDV3100 10 μM, 72 h
Description: (§3) Immunoblotting was performed as previously described (McCourt et al., Clin Cancer Res 2012; 18:3822-33). Antibodies were obtained as follows: AR, Millipore (#PG-21, UK); AR-V7 (#ab198394) & PARP (#14-6667-82), Abcam (UK); Bcl-2 (#4223), Cell Signalling Technology (The Netherlands); c-FLIP (#AG-20B-0056), Adipogen (Switzerland); RELA(p65) (#sc-372), Santa Cruz (CA, USA); GAPDH (#MCA4740), Biorad (UK).

[10] = test system: endothelial cell tubule formation; test: In vitro angiogenesis (V2A vascular tubule formation) assay; format: cell-based; conditions: 10 days; for stimulation of endothelial cell tubule formation: VEGF 2 ng/ml or rh-IL-8 3 nM
Description: The V2A angiogenesis assay (#ZHA-4000, Cellworks, UK) was carried out according to the manufacturer's instruction. Cells were allowed to settle for 4 days prior to treatment. Treatments were carried out in duplicate and were replenished every 2 days for 10 days. For treatments involving conditioned media, PC3 or LNCaP cells were treated as required for 24 h, media harvested and stored at −20° C. Vessels were visualized at 4× magnification. Vessel density was measured in four fields per well using AngioSys 2.0 software (Cellworks, UK).

[11] = test system: hypoxic LNCaP cells; test: qPCR of hypoxia-induced gene expression in LNCaP cells; format: cell-based, human; conditions: MDV3100 10 μM
Description: as §1
Nucleic acid samples were prepared and analyzed as previously described (Maxwell et al., Oncogene 2007; 26: 7333-45; Maxwell et al., Eur Urol 2013; 64: 177-88). Primer sequences were as follows: AR: Forward, 5′-[…]-3′ (SEQ ID NO: 1); Reverse, 5′-[…]-3′ (SEQ ID NO: 2); PSA/KLK3: Forward, 5′-[…]-3′ (SEQ ID NO: 3); Reverse, 5′-TTGCGCACACACGTCATT-3′ (SEQ ID NO: 4). Primer sequences for 18s, BCL2, CAIX, IL-8, and VEGF have been previously reported (Maxwell et al., Oncogene 2007; 26: 7333-45; Lekas et al., Urol Res 1997; 25: 309-14).

[12] = HUVEC cell viability (MTT assay); format: cell-based; conditions: human, HUVEC cells, read-out: reduction of viability of HUVEC cells
Description: as §2

[13] = test system: LNCaP tumours; test: Tumour oxygenation measurement in LNCaP xenograft model; format: in vivo, Balb/c SCID mice; conditions: MDV3100 4 mg/kg p.o. daily, nAbs i.p. 3x/week (anti-IL-8 50 μg/ml, anti-VEGF 100 μg/ml), over 28 days
Description: Tumour oxygenation was measured once weekly as previously described (Ming et al., Int J Cancer 2013; 132:1323-32).

[14] = test system: LNCaP cells; test: PARP immunoblot in LNCaP cells; format: cell-based, human; conditions: 10 μM, 72 h
Description: as §3

[15] = test system: PC3 cells; test: PC3 cell viability assay; format: cell-based, human; conditions: increasing concentrations, 72 h, relative to DMSO vehicle control
Description: as §2

What does the source list for `CNC(=O)c1ccc(N2C(=S)N(c3ccc(C#N)c(C(F)(F)F)c3)C(=O)C2(C)C)cc1F` [MDV3100, Enzalutamide]?
Tumour volume at day 28 (mm^3) (±SD) ([1]; day 28, MDV3100 4 mg/kg p.o. daily, antibodies i.p. 3x/week): 423 (±90) mm^3; reduction in tumour volume / tumour growth ([1]; treatment-day 28, over 28 days): 59.5%; % T/C ([1]; tumour growth over 28 days versus vehicle control): 39.0%; vessel coverage (percentage area covered by tumour vessels) ([2]; 14 days): 5.2±2.2%; vessel coverage (percentage area covered by tumour vessels) ([2]; after 7 days of treatment): 8.2±2.3%; vessel coverage (percentage area covered by tumour vessels) ([2]; day 21): 10.3±3.1%; vessel coverage (percentage area covered by tumour vessels) ([2]; day 28): 14.7±2.6%; hypoxia-induced secretion of VEGF and IL-8 (ELISA) [3]: failed to attenuate; viability of LNCaP cells ([4]; hypoxic conditions): ineffective; viability of LNCaP cells ([4]; normoxia, relative to DMSO control): reduced the viability; induction of apoptosis in HUVEC cells ([5]; hypoxia): significantly enhanced; induction of apoptosis in HUVEC cells ([5]; normoxic culture conditions): minimal; sensitivity of C4-2B cells (viability) ([6]; hypoxia, 10 μM): reduced sensitivity; sensitivity of C4-2B cells (viability) ([6]; normoxic culture conditions): intermediate sensitivity; PC3 colonization in the CAM assay [7]: significantly enhanced PC3 colonization; viability of LNCaP-EnzR cells [8]: no effect; expression of full-length PARP (immunoblot) [9]: clearly increased; tubule formation with conditioned medium from MDV3100-treated PC3 cells ([10]; CM of PC3 cells cultured with MDV3100 10 μM): no detrimental effect on tubule formation; development of branching junctions (vascular tubule formation) ([10]; MDV3100 10 μM): significantly impaired the development of branching junctions; hypoxia-induced up-regulation of BCL2 (qPCR) [11]: failed to reverse; hypoxia-induced up-regulation of CAIX (qPCR) [11]: failed to reverse; hypoxia-induced expression of VEGF and IL-8 (qPCR) ([11]; relative to DMSO): failed to attenuate; cytotoxicity at 72 h, 10 μM ([12]; 10 μM): 10%; cytotoxicity at 72 h, 50 μM ([12]; 50 μM): 17%; intra-tumoural oxygen levels [13]: rapid, profound drop in tumour oxygen levels over the initial 14 days; full-length PARP protein (immunoblot) ([14]; hypoxic LNCaP cells): stabilization of PARP; full-length PARP protein (immunoblot) ([14]; normoxic LNCaP cells): loss of full-length PARP protein; viability of PC3 cells [15]: unresponsive

For VEGF, which “stimulation of endothelial cell tubule formation” value [10] is on record?
Its value is “directly stimulated endothelial cell tubule formation”.

Which “stimulation of endothelial cell tubule formation” value [10] does the source give for “rh-IL-8: exogenous rh-IL-8 (3 nM) added in the tubule formation assay” here?
Its value is “less potent in stimulating tubule formation”.
